ChEMBL document CHEMBL1201862, “PubChem BioAssay data set” (2004)
Active and inactive are the calls of the source.

Experiments:
[1] = target: Arf-GAP with SH3 domain, ANK repeat and PH domain-containing protein 1 (Homo sapiens, UniProt Q9ULH1); type: functional;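 note: biochemical fluorescence polarization dose–response screen measuring inhibition of ASAP1; ASAP1 GAP domain stimulating GTP hydrolysis by truncated human ARF1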
[2] = target: ADP-ribosylation factor GTPase-activating protein 1 (Rattus norvegicus, UniProt Q62848); assay: Fluorescence polarization-based biochemical high throughput dose response screening assay to identify inhibitors of ADP-ribosylation factor GTPase activating protein 1 (ARFGAP1).; type: functional
[3] = cytotoxicity toward MDA-MB-231 breast cancer cells – cell-based, CellTiter-Glo luminescence, cherry-pick, cytotoxicity control for RAD54 inhibitor project, dose response (AID 651692); type: functional
[4] = target: T1, DNA repair protein RAD52 homolog (Homo sapiens, UniProt P43351); type: functional, biochemical
T1 sequence (P43351 whole entry): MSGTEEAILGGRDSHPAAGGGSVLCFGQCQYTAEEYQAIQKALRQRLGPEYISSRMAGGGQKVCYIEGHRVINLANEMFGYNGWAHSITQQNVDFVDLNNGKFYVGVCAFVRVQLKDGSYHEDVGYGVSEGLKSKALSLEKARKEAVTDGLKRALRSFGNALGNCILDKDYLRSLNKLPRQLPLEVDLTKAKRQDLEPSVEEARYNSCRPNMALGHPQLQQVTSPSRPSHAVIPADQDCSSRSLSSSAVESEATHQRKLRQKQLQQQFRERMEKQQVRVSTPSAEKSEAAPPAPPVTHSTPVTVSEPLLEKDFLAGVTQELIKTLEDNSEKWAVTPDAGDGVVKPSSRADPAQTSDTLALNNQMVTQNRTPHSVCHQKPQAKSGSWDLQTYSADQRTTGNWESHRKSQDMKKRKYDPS

[5] = target: T2, DNA repair and recombination protein RAD54-like (Homo sapiens, UniProt Q92698); assay: RAD54 Holliday junction migration blockers – biochemical, fluorescence, cherry-picked samples, dose series, confirmation (AID 651657); type: functional
T2 sequence (Q92698 whole entry): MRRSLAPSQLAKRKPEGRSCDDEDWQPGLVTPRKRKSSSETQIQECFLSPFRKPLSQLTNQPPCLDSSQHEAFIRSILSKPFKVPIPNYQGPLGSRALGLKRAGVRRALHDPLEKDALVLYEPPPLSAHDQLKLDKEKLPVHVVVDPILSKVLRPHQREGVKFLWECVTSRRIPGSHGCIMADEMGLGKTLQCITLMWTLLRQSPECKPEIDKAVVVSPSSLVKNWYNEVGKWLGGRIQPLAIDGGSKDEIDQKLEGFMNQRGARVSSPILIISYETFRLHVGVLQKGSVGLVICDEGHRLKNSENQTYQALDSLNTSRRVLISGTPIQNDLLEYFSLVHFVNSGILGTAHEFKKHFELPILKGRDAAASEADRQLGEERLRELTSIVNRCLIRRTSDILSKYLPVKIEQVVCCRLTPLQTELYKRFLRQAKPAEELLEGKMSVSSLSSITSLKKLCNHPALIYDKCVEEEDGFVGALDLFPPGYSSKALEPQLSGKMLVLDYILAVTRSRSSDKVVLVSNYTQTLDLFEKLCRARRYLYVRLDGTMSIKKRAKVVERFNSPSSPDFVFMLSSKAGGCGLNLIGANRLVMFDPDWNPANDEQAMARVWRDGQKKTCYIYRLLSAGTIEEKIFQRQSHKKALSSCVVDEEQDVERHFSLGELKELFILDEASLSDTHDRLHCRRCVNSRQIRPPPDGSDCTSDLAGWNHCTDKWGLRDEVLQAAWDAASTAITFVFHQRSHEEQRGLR

[6] = target: T3, Beta Lactamase (Pseudomonas aeruginosa, UniProt Q932Y6); assay: concentration-dependent VIM-2 enzyme inhibition – biochemical, epi-absorbance readout, selective inhibitors, dose response (AID 1919)
[7] = target: T4, Beta-lactamase (Pseudomonas aeruginosa, UniProt Q79MP6); assay: inhibition of IMP-1 beta-lactamase activity – biochemical, epi-absorbance, selectivity assay for VIM-2 inhibitor project, dose response (AID 1920)
[8] = target: Beta-lactamase (Salmonella choleraesuis (strain SC-B67), UniProt Q5J463); assay: Epi-absorbance-based counterscreen for selective VIM-2 inhibitors: dose response biochemical high throughput screening assay to identify inhibitors of TEM-1 serine-beta-lactamase.
[9] = target: T3, Beta Lactamase; assay: VIM-2 CCF2 hydrolysis inhibition, assay artifact filter – biochemical, FRET readout, CCF2 substrate, artefact control for selective VIM-2 inhibitor project, dose response (AID 1926)
[10] = target: T4, Beta-lactamase; assay: […] counterscreen for selective VIM-2 inhibitors: dose response biochemical high throughput screening assay to identify inhibitors of IMP-1 metallo-beta-lactamase.

T4 sequence (Q79MP6 whole entry): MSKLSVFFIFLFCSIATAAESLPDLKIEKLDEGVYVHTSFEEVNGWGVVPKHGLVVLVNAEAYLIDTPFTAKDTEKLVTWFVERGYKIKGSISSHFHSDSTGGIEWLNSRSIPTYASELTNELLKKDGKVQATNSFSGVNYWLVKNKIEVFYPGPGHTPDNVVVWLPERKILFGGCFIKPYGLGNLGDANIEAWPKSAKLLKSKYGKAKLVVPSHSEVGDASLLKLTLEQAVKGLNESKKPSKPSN
T3 sequence (Q932Y6 whole entry): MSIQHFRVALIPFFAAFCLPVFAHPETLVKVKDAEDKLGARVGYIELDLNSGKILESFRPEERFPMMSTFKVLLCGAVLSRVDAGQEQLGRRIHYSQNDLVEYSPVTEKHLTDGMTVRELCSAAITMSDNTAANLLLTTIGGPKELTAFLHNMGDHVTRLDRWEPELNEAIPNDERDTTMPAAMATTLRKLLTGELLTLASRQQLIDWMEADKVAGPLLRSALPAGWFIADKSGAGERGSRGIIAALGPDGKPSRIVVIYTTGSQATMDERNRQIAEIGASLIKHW
Sequence of ADP-ribosylation factor GTPase-activating protein 1 (Q62848 whole entry): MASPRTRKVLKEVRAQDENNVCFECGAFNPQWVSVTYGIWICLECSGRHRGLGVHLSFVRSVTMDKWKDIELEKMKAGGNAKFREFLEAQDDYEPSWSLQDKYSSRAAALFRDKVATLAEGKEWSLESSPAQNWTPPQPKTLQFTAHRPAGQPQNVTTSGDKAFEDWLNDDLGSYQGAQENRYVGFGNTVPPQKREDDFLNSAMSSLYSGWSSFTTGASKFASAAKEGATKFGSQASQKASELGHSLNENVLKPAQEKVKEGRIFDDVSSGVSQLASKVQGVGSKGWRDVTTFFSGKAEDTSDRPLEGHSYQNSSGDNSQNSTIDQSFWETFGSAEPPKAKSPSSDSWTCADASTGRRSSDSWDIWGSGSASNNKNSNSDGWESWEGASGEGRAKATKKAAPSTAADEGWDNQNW
Sequence of Beta-lactamase (Salmonella choleraesuis (strain SC-B67), UniProt Q5J463) (Q5J463 whole entry): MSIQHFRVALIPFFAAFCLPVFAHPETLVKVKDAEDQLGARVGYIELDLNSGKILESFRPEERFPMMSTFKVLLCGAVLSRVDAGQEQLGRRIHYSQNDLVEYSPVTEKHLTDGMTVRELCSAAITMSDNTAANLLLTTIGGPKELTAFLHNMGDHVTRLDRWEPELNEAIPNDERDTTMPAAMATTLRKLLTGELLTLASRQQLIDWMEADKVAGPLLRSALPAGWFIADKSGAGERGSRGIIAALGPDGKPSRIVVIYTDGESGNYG
Sequence of Arf-GAP with SH3 domain, ANK repeat and PH domain-containing protein 1 (Q9ULH1 whole entry, the tested form may be a part): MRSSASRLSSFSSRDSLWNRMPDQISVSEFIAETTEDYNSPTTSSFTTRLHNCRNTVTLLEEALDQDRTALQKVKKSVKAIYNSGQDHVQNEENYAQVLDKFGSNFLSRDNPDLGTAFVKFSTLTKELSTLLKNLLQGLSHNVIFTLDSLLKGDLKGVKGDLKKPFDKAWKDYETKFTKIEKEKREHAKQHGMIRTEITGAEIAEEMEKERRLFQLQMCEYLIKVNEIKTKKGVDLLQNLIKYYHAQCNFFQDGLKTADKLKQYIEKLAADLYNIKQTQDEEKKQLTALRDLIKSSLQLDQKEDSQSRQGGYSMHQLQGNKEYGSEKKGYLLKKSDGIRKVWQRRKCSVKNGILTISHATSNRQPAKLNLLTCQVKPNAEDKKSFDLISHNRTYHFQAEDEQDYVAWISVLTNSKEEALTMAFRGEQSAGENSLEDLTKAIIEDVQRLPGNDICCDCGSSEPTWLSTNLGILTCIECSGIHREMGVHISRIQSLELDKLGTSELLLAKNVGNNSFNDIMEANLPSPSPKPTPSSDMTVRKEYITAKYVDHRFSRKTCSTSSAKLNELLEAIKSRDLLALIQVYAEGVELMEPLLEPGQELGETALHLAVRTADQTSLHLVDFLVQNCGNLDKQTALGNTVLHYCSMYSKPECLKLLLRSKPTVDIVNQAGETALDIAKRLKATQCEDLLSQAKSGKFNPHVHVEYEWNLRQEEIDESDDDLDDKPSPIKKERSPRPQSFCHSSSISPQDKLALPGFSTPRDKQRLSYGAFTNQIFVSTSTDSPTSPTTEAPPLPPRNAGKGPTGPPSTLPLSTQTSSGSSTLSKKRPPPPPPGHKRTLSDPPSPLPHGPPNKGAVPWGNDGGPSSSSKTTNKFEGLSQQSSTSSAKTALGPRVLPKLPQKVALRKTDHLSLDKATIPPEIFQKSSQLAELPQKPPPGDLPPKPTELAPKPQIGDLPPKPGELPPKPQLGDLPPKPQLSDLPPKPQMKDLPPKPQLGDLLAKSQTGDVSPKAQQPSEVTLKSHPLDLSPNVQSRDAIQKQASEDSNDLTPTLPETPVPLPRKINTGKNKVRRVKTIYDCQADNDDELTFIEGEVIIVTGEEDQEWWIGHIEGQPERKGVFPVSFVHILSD

Structure (SMILES): Cc1ccc2nc(SCC(=O)N3CC(C)OC(C)C3)nc(=O)n2c1 (stereo not given)
- IC50 [1]: 20.9 µM (inactive)
- IC50 [2]: 10.7 µM (inactive)

Structure (SMILES): Cc1cc2oc3ccc(NCCC4CCCN4C)cc3c(=O)c2cc1C (stereo not given)
- AC50 [3]: 23.6 µM (active)
- AC50 [4]: 8.31 µM (active)
- AC50 [5]: 14.7 µM (active)

Structure (SMILES): CN(C)S(=O)(=O)c1cccc(NC(=S)N/N=C/C2CC=CCC2)c1 (stereo not given)
- IC50 [6]: 1 µM (active)
- IC50 [7]: > 59.6 µM (inactive)
- IC50 [8]: > 59.6 µM (inactive)
- IC50 [9]: 0.335 µM (active)
- IC50 [10]: > 59.6 µM (inactive)
